According to patent publication US8686044B2, “Amide derivative, pest control agent containing the amide derivative, and use of the amide derivative” (Mitsui Chemicals Agro, Inc., priority 2008, dated 2014):

Legend:
Type in all cases: in vivo
Spodoptera litura = test: Pesticidal test against Spodoptera litura (cabbage leaf dip); conditions: foliar, 144 h, 2-stage larvae, examined after 6 days, 25° C., read-out: pesticidal rate; for pest or weed control at 1 ppm: concentration 1 ppm
Procedure: (§1) Pesticidal Test against Spodoptera litura A piece of a cabbage leaf was immersed for 30 seconds in a chemical solution in which a test compound had been prepared at a predetermined concentration, and air-dried, and then put into a 7 cm polyethylene cup having a filter paper laid on the bottom thereof, and 2-stage larvae of Spodoptera litura were released. They were left to stand in a thermostatic chamber at 25° C., and the numbers of the living pests and the dead pests were examined after 6 days. The test was carried out with five larvae per group in two replicates. Further, the following compound (A) disclosed in the pamphlet of International Publication WO 2005/073165 was used as a comparative compound.

Plutella xylostella = test: Pesticidal test against Plutella xylostella (cabbage leaf dip); conditions: foliar, 144 h, 2-stage larvae, examined after 6 days, 25° C., read-out: pesticidal rate; for pest or weed control at 1 ppm: concentration 1 ppm; for pest or weed control at 10 ppm: concentration 10 ppm
Procedure: as §1, with “Plutella xylostella” for “Spodoptera litura”, “above” for “following”, “(A)” for “(A) disclosed in the pamphlet of International Publication WO 2005/073165”

Laodelphax striatellus = test: Pesticidal test against Laodelphax striatellus (rice seedling spray); conditions: 144 h, concentration 100 ppm, 3-stage larvae, examined after 6 days, 25° C., read-out: pesticidal rate
Procedure: Pesticidal Test against Laodelphax striatellus
2.5 ml of an acetone solution in which a test compound had been prepared at a predetermined concentration was sprayed on rice seedlings, air-dried, and then put into a glass tube having a diameter of 3 cm and a height of 13 cm, having water therein, and 3-stage larvae of Laodelphax striatellus were released and the tube was capped. They were left to stand in a thermostatic chamber at 25° C., and the numbers of the living pests and the dead pests were examined after 6 days. The test was carried out with ten larvae per group in two replicates.

N#Cc1cccc(C(=O)Nc2cccc(C(=O)Nc3c(I)cc(C(F)(C(F)(F)F)C(F)(F)F)cc3C(F)(F)F)c2)c1 [6-444]
≥ 70%: pest or weed control at 1 ppm (Spodoptera litura) | pest or weed control at 1 ppm (Plutella xylostella) | pest or weed control at 100 ppm (Laodelphax striatellus)

N#Cc1ccc(C(=O)Nc2cccc(C(=O)Nc3c(I)cc(C(F)(C(F)(F)F)C(F)(F)F)cc3C(F)(F)F)c2)cc1 [6-445]
≥ 70%: pest or weed control at 1 ppm (Spodoptera litura) | pest or weed control at 1 ppm (Plutella xylostella) | pest or weed control at 100 ppm (Laodelphax striatellus)

O=C(Nc1c(I)cc(C(F)(C(F)(F)F)C(F)(F)F)cc1C(F)(F)F)c1cccc(NC(=O)c2cccnc2Br)c1 [6-461]
≥ 70%: pest or weed control at 1 ppm (Spodoptera litura) | pest or weed control at 1 ppm (Plutella xylostella) | pest or weed control at 100 ppm (Laodelphax striatellus)

O=C(Nc1cccc(C(=O)Nc2c(Br)cc(C(F)(C(F)(F)F)C(F)(F)F)cc2Br)c1F)c1cccnc1Cl [6-1140, 2-chloro-N-(3-(2,6-dibromo-4-(perfluoropropan-2-yl)phenylcarbamoyl)-2-fluorophenyl)nicotinamide]
≥ 70%: pest or weed control at 1 ppm (Spodoptera litura) | pest or weed control at 1 ppm (Plutella xylostella) | pest or weed control at 100 ppm (Laodelphax striatellus)

O=C(Nc1cccc(C(=O)Nc2c(Br)cc(C(F)(C(F)(F)F)C(F)(F)C(F)(F)F)cc2Br)c1F)c1ccccc1F (stereo not drawn) [6-1183]
≥ 70%: pest or weed control at 1 ppm (Spodoptera litura) | pest or weed control at 1 ppm (Plutella xylostella) | pest or weed control at 100 ppm (Laodelphax striatellus)

O=C(Nc1cccc(C(=O)Nc2c(Br)cc(C(F)(C(F)(F)F)C(F)(F)C(F)(F)F)cc2Br)c1F)c1ccc(F)cc1 (stereo not drawn) [6-1185]
≥ 70%: pest or weed control at 1 ppm (Spodoptera litura) | pest or weed control at 1 ppm (Plutella xylostella) | pest or weed control at 100 ppm (Laodelphax striatellus)

N#Cc1ccc(C(=O)Nc2cccc(C(=O)Nc3c(Br)cc(C(F)(C(F)(F)F)C(F)(F)C(F)(F)F)cc3Br)c2F)cc1 (stereo not drawn) [6-1203]
≥ 70%: pest or weed control at 1 ppm (Spodoptera litura) | pest or weed control at 1 ppm (Plutella xylostella) | pest or weed control at 100 ppm (Laodelphax striatellus)

O=C(Nc1cccc(C(=O)Nc2c(Br)cc(C(F)(C(F)(F)F)C(F)(F)C(F)(F)F)cc2Br)c1F)c1ccc(Cl)nc1 (stereo not drawn) [6-1225]
≥ 70%: pest or weed control at 1 ppm (Spodoptera litura) | pest or weed control at 1 ppm (Plutella xylostella) | pest or weed control at 100 ppm (Laodelphax striatellus)

O=C(Nc1cccc(C(=O)Nc2c(I)cc(C(F)(C(F)(F)F)C(F)(F)F)cc2I)c1F)c1ccccc1F [6-1261]
≥ 70%: pest or weed control at 1 ppm (Spodoptera litura) | pest or weed control at 1 ppm (Plutella xylostella) | pest or weed control at 100 ppm (Laodelphax striatellus)

O=C(Nc1c(I)cc(C(F)(C(F)(F)F)C(F)(F)F)cc1I)c1cccc(NC(=O)c2c(F)cccc2F)c1F [6-1282]
≥ 70%: pest or weed control at 1 ppm (Spodoptera litura) | pest or weed control at 1 ppm (Plutella xylostella) | pest or weed control at 100 ppm (Laodelphax striatellus)

O=C(Nc1cccc(C(=O)Nc2c(I)cc(C(F)(C(F)(F)F)C(F)(F)F)cc2I)c1F)c1ccc(Cl)nc1 [6-1303]
≥ 70%: pest or weed control at 1 ppm (Spodoptera litura) | pest or weed control at 1 ppm (Plutella xylostella) | pest or weed control at 100 ppm (Laodelphax striatellus)

O=C(Nc1cccc(C(=O)Nc2c(I)cc(C(F)(C(F)(F)F)C(F)(F)C(F)(F)F)cc2I)c1F)c1ccccc1F (stereo not drawn) [6-1339]
≥ 70%: pest or weed control at 1 ppm (Spodoptera litura) | pest or weed control at 1 ppm (Plutella xylostella) | pest or weed control at 100 ppm (Laodelphax striatellus)

O=C(Nc1cccc(C(=O)Nc2c(I)cc(C(F)(C(F)(F)F)C(F)(F)C(F)(F)F)cc2I)c1F)c1cccc(F)c1 (stereo not drawn) [6-1340]
≥ 70%: pest or weed control at 1 ppm (Spodoptera litura) | pest or weed control at 1 ppm (Plutella xylostella) | pest or weed control at 100 ppm (Laodelphax striatellus)

O=C(Nc1cccc(C(=O)Nc2c(I)cc(C(F)(C(F)(F)F)C(F)(F)C(F)(F)F)cc2I)c1F)c1ccc(Cl)nc1 (stereo not drawn) [6-1381]
≥ 70%: pest or weed control at 1 ppm (Spodoptera litura) | pest or weed control at 1 ppm (Plutella xylostella) | pest or weed control at 100 ppm (Laodelphax striatellus)

O=C(Nc1cccc(C(=O)Nc2c(Br)cc(C(F)(C(F)(F)F)C(F)(F)C(F)(F)F)cc2C(F)(F)F)c1F)c1ccccc1F (stereo not drawn) [6-1653]
≥ 70%: pest or weed control at 1 ppm (Spodoptera litura) | pest or weed control at 1 ppm (Plutella xylostella) | pest or weed control at 100 ppm (Laodelphax striatellus)

O=C(Nc1cccc(C(=O)Nc2c(I)cc(C(F)(C(F)(F)F)C(F)(F)F)cc2C(F)(F)F)c1F)c1ccc(Cl)cc1Cl [6-1754]
≥ 70%: pest or weed control at 1 ppm (Spodoptera litura) | pest or weed control at 1 ppm (Plutella xylostella) | pest or weed control at 100 ppm (Laodelphax striatellus)

O=C(Nc1cccc(C(=O)Nc2c(I)cc(C(F)(C(F)(F)F)C(F)(F)F)cc2C(F)(F)F)c1F)c1cccnc1Cl [6-1766]
≥ 70%: pest or weed control at 1 ppm (Spodoptera litura) | pest or weed control at 1 ppm (Plutella xylostella) | pest or weed control at 100 ppm (Laodelphax striatellus)

O=C(Nc1cc(C(=O)Nc2c(Br)cc(C(F)(C(F)(F)F)C(F)(F)F)cc2C(F)(F)F)ccc1F)c1ccccc1 [6-3348, 3-benzamide-N-(2-bromo-4-(perfluoropropan-2-yl)-6-(trifluoromethyl)phenyl)-4-fluorobenzamide]
≥ 70%: pest or weed control at 1 ppm (Spodoptera litura) | pest or weed control at 1 ppm (Plutella xylostella) | pest or weed control at 100 ppm (Laodelphax striatellus)

O=C(Nc1c(Br)cc(C(F)(C(F)(F)F)C(F)(F)F)cc1C(F)(F)F)c1ccc(F)c(NC(=O)c2cccnc2Cl)c1 [6-3384]
≥ 70%: pest or weed control at 1 ppm (Spodoptera litura) | pest or weed control at 1 ppm (Plutella xylostella) | pest or weed control at 100 ppm (Laodelphax striatellus)

O=C(Nc1cccc(C(=O)Nc2c(I)cc(C(F)(C(F)(F)F)C(F)(F)C(F)(F)F)cc2I)c1)c1cccc(F)c1 (stereo not drawn) [6-5903]
≥ 70%: pest or weed control at 1 ppm (Spodoptera litura) | pest or weed control at 1 ppm (Plutella xylostella) | pest or weed control at 100 ppm (Laodelphax striatellus)

O=C(Nc1cccc(C(=O)Nc2c(I)cc(C(F)(C(F)(F)F)C(F)(F)C(F)(F)F)cc2I)c1)c1ccc(F)cc1 (stereo not drawn) [6-5904]
≥ 70%: pest or weed control at 1 ppm (Spodoptera litura) | pest or weed control at 1 ppm (Plutella xylostella) | pest or weed control at 100 ppm (Laodelphax striatellus)

O=C(Nc1cccc(C(=O)Nc2c(Br)cc(C(F)(C(F)(F)F)C(F)(F)C(F)(F)F)cc2Br)c1)c1ccc(F)cc1 (stereo not drawn) [6-5906]
≥ 70%: pest or weed control at 1 ppm (Spodoptera litura) | pest or weed control at 1 ppm (Plutella xylostella) | pest or weed control at 100 ppm (Laodelphax striatellus)

O=C(Nc1cccc(C(=O)Nc2c(Br)cc(C(F)(C(F)(F)F)C(F)(F)F)cc2OC(F)(F)F)c1F)c1ccccc1 [6-5907]
≥ 70%: pest or weed control at 1 ppm (Spodoptera litura) | pest or weed control at 1 ppm (Plutella xylostella) | pest or weed control at 100 ppm (Laodelphax striatellus)

O=C(Nc1cccc(C(=O)Nc2c(Br)cc(C(F)(C(F)(F)F)C(F)(F)F)cc2OC(F)(F)F)c1F)c1cccnc1Cl [6-5908, N-(3-(2-bromo-4-(perfluoropropan-2-yl)-6-(trifluoromethoxy)phenylcarbamoyl)-2-fluorophenyl)-2-chloronicotinamide]
≥ 70%: pest or weed control at 1 ppm (Spodoptera litura) | pest or weed control at 1 ppm (Plutella xylostella) | pest or weed control at 100 ppm (Laodelphax striatellus)

N#Cc1ccc(C(=O)Nc2cccc(C(=O)Nc3c(Br)cc(C(F)(C(F)(F)F)C(F)(F)F)cc3OC(F)(F)F)c2F)cc1 [6-5909]
≥ 70%: pest or weed control at 1 ppm (Spodoptera litura) | pest or weed control at 1 ppm (Plutella xylostella) | pest or weed control at 100 ppm (Laodelphax striatellus)

O=C(Nc1cccc(C(=O)Nc2c(Br)cc(C(F)(C(F)(F)F)C(F)(F)F)cc2C(F)(F)C(F)(F)F)c1F)c1ccccc1 [6-5910]
≥ 70%: pest or weed control at 1 ppm (Spodoptera litura) | pest or weed control at 1 ppm (Plutella xylostella) | pest or weed control at 100 ppm (Laodelphax striatellus)

N#Cc1ccc(C(=O)Nc2cccc(C(=O)Nc3c(Br)cc(C(F)(C(F)(F)F)C(F)(F)F)cc3C(F)(F)C(F)(F)F)c2F)cc1 [6-5911, N-(2-bromo-6-(perfluoroethyl)-4-(perfluoropropan-2-yl)phenyl)-3-(4-cyanobenzamide)-2-fluorobenzamide]
≥ 70%: pest or weed control at 1 ppm (Spodoptera litura) | pest or weed control at 1 ppm (Plutella xylostella) | pest or weed control at 100 ppm (Laodelphax striatellus)

O=C(Nc1c(Br)cc(C(F)(F)C(F)(F)F)cc1C(F)(F)F)c1cccc(NC(=O)c2cccnc2Cl)c1 [6-5914]
≥ 70%: pest or weed control at 10 ppm (Spodoptera litura; concentration 10 ppm) | pest or weed control at 10 ppm (Plutella xylostella) | pest or weed control at 100 ppm (Laodelphax striatellus)

CN(C(=O)c1c(F)cccc1F)c1cccc(C(=O)Nc2c(Br)cc(C(F)(C(F)(F)F)C(F)(F)C(F)(F)F)cc2Br)c1 (stereo not drawn) [7-47]
≥ 70%: pest or weed control at 1 ppm (Spodoptera litura) | pest or weed control at 1 ppm (Plutella xylostella) | pest or weed control at 100 ppm (Laodelphax striatellus)

CN(C(=O)c1cccc([N+](=O)[O-])c1)c1cccc(C(=O)Nc2c(Br)cc(C(F)(C(F)(F)F)C(F)(F)F)cc2C(F)(F)F)c1 [7-285]
≥ 70%: pest or weed control at 1 ppm (Spodoptera litura) | pest or weed control at 10 ppm (Plutella xylostella) | pest or weed control at 100 ppm (Laodelphax striatellus)

CN(C(=O)c1ccc([N+](=O)[O-])cc1)c1cccc(C(=O)Nc2c(Br)cc(C(F)(C(F)(F)F)C(F)(F)F)cc2C(F)(F)F)c1 [7-286]
≥ 70%: pest or weed control at 1 ppm (Spodoptera litura) | pest or weed control at 1 ppm (Plutella xylostella) | pest or weed control at 100 ppm (Laodelphax striatellus)

CN(C(=O)c1cccc(C#N)c1)c1cccc(C(=O)Nc2c(Br)cc(C(F)(C(F)(F)F)C(F)(F)F)cc2C(F)(F)F)c1 [7-288]
≥ 70%: pest or weed control at 1 ppm (Spodoptera litura) | pest or weed control at 1 ppm (Plutella xylostella) | pest or weed control at 100 ppm (Laodelphax striatellus)

CN(C(=O)c1ccc(C#N)cc1)c1cccc(C(=O)Nc2c(Br)cc(C(F)(C(F)(F)F)C(F)(F)F)cc2C(F)(F)F)c1 [7-289]
≥ 70%: pest or weed control at 1 ppm (Spodoptera litura) | pest or weed control at 1 ppm (Plutella xylostella) | pest or weed control at 100 ppm (Laodelphax striatellus)

CN(C(=O)c1ccc(C#N)cc1Cl)c1cccc(C(=O)Nc2c(Br)cc(C(F)(C(F)(F)F)C(F)(F)F)cc2C(F)(F)F)c1 [7-301]
≥ 70%: pest or weed control at 1 ppm (Spodoptera litura) | pest or weed control at 1 ppm (Plutella xylostella) | pest or weed control at 100 ppm (Laodelphax striatellus)

CN(C(=O)c1cccnc1F)c1cccc(C(=O)Nc2c(Br)cc(C(F)(C(F)(F)F)C(F)(F)F)cc2C(F)(F)F)c1 [7-303]
≥ 70%: pest or weed control at 1 ppm (Spodoptera litura) | pest or weed control at 1 ppm (Plutella xylostella) | pest or weed control at 100 ppm (Laodelphax striatellus)
